The target in one assay is human S1P1 receptor (Homo sapiens, UniProt P21453). The assay is described as follows: GTPγS assay to determine EC50 values. The conditions noted are these: 35S-GTPγS binding, membrane preparations of CHO cells expressing recombinant human S1P1 receptor; agonistic activity. Type of assay: biochemical. Here is the method:
GTPγS Assay to Determine EC50 Values
GTPγS binding assays are performed in 96 well microtiter plates (Nunc, 442587) in a final volume of 200 μl, using membrane preparations of CHO cells expressing recombinant human S1P1 receptor. Assay conditions are 20 mM Hepes (Fluka, 54461), 100 mM NaCl (Fluka, 71378), 5 mM MgCl2 (Fluka, 63064), 0.1% BSA (Calbiochem, 126609), 1 μM GDP (Sigma, G-7127), 2.5% DMSO (Fluka, 41644), 50 pM ^35S-GTPγS (Amersham Biosciences, SJ1320). The pH is 7.4. Test compounds are dissolved and diluted in 100% DMSO and pre-incubated at rt for 30 min in 150 μl of the above assay buffer, in the absence of ^35S-GTPγS. After addition of 50 μl of ^35S-GTPγS, the assay is incubated for 1 h at rt. The assay is terminated by transfer of the reaction mixture to a Multiscreen plate (Millipore, MAHFC1H60) using a cell harvester from Packard Biosciences, and the plates are washed with ice-cold 10 mM Na2HPO4/NaH2PO4 (70%/30%), dried, sealed at the bottom and, after addition of 25 μl MicroScint20 (Packard Biosciences, order# 6013621), sealed on the top. Membrane-bound ^35S-GTPγS is measured with a TopCount from Packard Biosciences.
EC50 is the concentration of agonist inducing 50% of the maximal specific ^35S-GTPγS binding. Specific binding is determined by subtracting non-specific binding from maximal binding. Maximal binding is the amount of cpm bound to the Multiscreen plate in the presence of 10 μM of S1P. Non-specific binding is the amount of binding in the absence of an agonist in the assay.

Another assay concerns circulating lymphocytes. Description: Assessment of in vivo efficacy: circulating lymphocytes after oral administration. The conditions noted are these: 6 h after oral administration of 10 mg/kg to normotensive male Wistar rats, compared to vehicle-treated group; mean ± SEM. The method, then: Assessment of In Vivo Efficacy
The efficacy of the compounds of formula (I) is assessed by measuring the circulating lymphocytes after oral administration of 3 to 30 mg/kg of a compound of formula (I) to normotensive male Wistar rats. The animals are housed in climate-controlled conditions with a 12 h-light/dark cycle, and have free access to normal rat chow and drinking water. Blood is collected before and 3, 6 and 24 h after drug administration. Full blood is subjected to hematology using Advia Hematology system (Bayer Diagnostics, Zurich, Switzerland).
All data are presented as mean±SEM. Statistical analyses are performed by analysis of variance (ANOVA) using Statistica (StatSoft) and the Student-Newman-Keuls procedure for multiple comparisons. The null hypothesis is rejected when p<0.05.

In patent US20110046170A1, “NOVEL PYRIMIDINE-PYRIDINE DERIVATIVES” (priority 2008, published 2011) one finds EC50 and Lymphocyte counts data, which are given here for two compounds.

Chain of human S1P1 receptor (P21453 whole entry): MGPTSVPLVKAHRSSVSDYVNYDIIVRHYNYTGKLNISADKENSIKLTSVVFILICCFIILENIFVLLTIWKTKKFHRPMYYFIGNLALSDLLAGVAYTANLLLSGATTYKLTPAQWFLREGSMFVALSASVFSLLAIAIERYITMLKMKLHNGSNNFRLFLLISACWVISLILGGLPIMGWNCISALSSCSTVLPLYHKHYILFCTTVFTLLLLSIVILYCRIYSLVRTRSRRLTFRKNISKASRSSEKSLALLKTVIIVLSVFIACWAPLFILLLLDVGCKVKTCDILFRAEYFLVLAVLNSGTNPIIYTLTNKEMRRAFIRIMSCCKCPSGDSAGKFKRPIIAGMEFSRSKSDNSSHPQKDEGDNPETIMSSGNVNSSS

Regarding `Cc1cc(-c2noc(-c3cc(C)nc(NC(C)C)n3)n2)cc(C)n1` [Example 21], at human S1P1 receptor, the EC50 was 1.6 nM. The Lymphocyte counts with circulating lymphocytes was −71 ± 2%.

As for `CCNc1nc(CC)cc(-c2nc(-c3cc(C)nc(C)c3)no2)n1` [Example 79, {4-[3-(2,6-Dimethyl-pyridin-4-yl)-[1,2,4]oxadiazol-5-yl]-6-ethyl-pyrimidin-2-yl}-ethyl-amine], the EC50 on human S1P1 receptor is 1.2 nM. Moreover, the Lymphocyte counts in the assay with circulating lymphocytes is recorded as −70 ± 2%.
